Measured values from patent US20090143279A1 (priority 2007, published 2009).
Like-named read-outs stand apart in the source and are kept apart here.

What was measured:
[1] = tested on: cellular dehydrogenase activity
OXPHOS gene expression = format: cell-based, mouse
cytochrome c = format: cell-based, mouse
nuOXPHOS transcripts = format: cell-based, mouse
mtOXPHOS transcripts = format: cell-based, mouse
[2] = tested on: mitochondrial membrane potential; format: cell-based, mouse
reactive oxygen species = format: cell-based, mouse
[3] = composite Z-score vs DMSO, Conc 20 μM
[4] = Conc 20 μM, normalized score vs mock-treated (DMSO) wells
[5] = composite Z-score vs mock-treated (DMSO) wells, Conc 20 μM
[6] = composite Z-score vs mock-treated (DMSO) wells, concentration of each compound in μM

NC(=O)N/N=C/c1ccc([N+](=O)[O-])o1 [nitrofurazone]
MTT [1, 3]: −0.617
GE-HTS (OXPHOS gene expression; [3]): −0.199
Viability (C2C12 myotubes; [3]): 0.544
cyt c (cytochrome c; [3]): 0.785
nucOX (nuOXPHOS transcripts; [3]): 0.038
mitoOX (mtOXPHOS transcripts; [3]): −0.643
ΔΨm [2, 3]: −0.185
ROS (reactive oxygen species; [3]): 2.173

COc1cc(OC)c2c(c1)OC(c1ccccc1)CC2=O (stereo not shown) [alpinetin methyl ether]
MTT (composite Z-score) [1, 4]: −0.694
GE-HTS (composite Z-score) (OXPHOS gene expression; [4]): −0.565
Viability (composite Z-score) (C2C12 myotubes; [4]): 0.220
cyt c (composite Z-score) (cytochrome c; [4]): −0.145
nucOX (composite Z-score) (nuOXPHOS transcripts; [4]): −0.437
mitoOX (composite Z-score) (mtOXPHOS transcripts; [4]): −0.717
ΔΨm (composite Z-score) [2, 4]: −0.286
ROS (composite Z-score) (reactive oxygen species; [4]): 0.827

CCOc1nc2cccc(C(=O)OC(C)OC(=O)OC3CCCCC3)c2n1Cc1ccc(-c2ccccc2-c2nn[nH]n2)cc1 (stereo not shown) [candesartan cilextil]
MTT [1, 3]: −1.116
GE-HTS (OXPHOS gene expression; [3]): −0.432
Viability (C2C12 myotubes; [3]): 1.842
cyt c (cytochrome c; [3]): 1.328
nucOX (nuOXPHOS transcripts; [3]): −0.259
mitoOX (mtOXPHOS transcripts; [3]): −0.658
ΔΨm [2, 3]: −0.743
ROS (reactive oxygen species; [3]): 1.855

CC(=O)O[C@@H]1CC2C(C)(C)[C@H](O)C=C[C@]2(C)C2CC[C@@]3(C)[C@H](c4ccoc4)OC(=O)C4OC43[C@@]21C (stereo partly shown) [gedunol]
MTT [1, 5]: −1.248
GE-HTS (OXPHOS gene expression; [5]): −1.545
Viability (C2C12 myotubes; [5]): 0.438
nucOX (nuOXPHOS transcripts; [5]): −1.561
mitoOX (mtOXPHOS transcripts; [5]): −1.174
ΔΨm [2, 5]: 0.897
ROS (reactive oxygen species; [5]): 0.132

CC12CCC3c4ccc(OCc5ccccc5)cc4CCC3C1C[C@@H](O)[C@@H]2O (stereo partly shown) [estriol benzyl ether]
MTT (composite Z-score vs DMSO mock-treated wells) [1]: 2.975
GE-HTS (composite Z-score, OXPHOS gene expression) (OXPHOS gene expression): −0.114
Viability (composite Z-score vs DMSO mock-treated wells) (C2C12 myotubes): 0.551
nucOX (composite Z-score, nuclear-encoded OXPHOS expression) (nuOXPHOS transcripts): 0.122
mitoOX (composite Z-score, mtDNA-encoded OXPHOS expression) (mtOXPHOS transcripts): −0.574
ΔΨm (composite Z-score vs DMSO mock-treated wells) [2]: 3.459
ROS (composite Z-score vs DMSO mock-treated wells) (reactive oxygen species): −0.504

O=C(O[C@@H]1Cc2c(O)cc(O)cc2O[C@@H]1c1cc(O)c(=O)c2c(O)c(O)cc([C@H]3Oc4cc(O)cc(O)c4C[C@H]3OC(=O)c3cc(O)c(O)c(O)c3)c2c1)c1cc(O)c(O)c(O)c1 [theaflavin digallate]
MTT [1]: −0.518
GE-HTS (OXPHOS gene expression): 0.783
Viability (C2C12 myotubes): −1.408
nucOX (nuOXPHOS transcripts): 0.948
mitoOX (mtOXPHOS transcripts): 0.275
ΔΨm [2]: −0.326
ROS (reactive oxygen species): 0.718

CC(=O)O[C@@H]1CC2C(C)(C)C=CC(=O)[C@]2(C)C2CC[C@@]3(C)[C@H](c4ccoc4)OC(=O)C4OC43[C@@]21C (stereo partly shown) [isogedunin]
MTT [1, 5]: −1.716
GE-HTS (OXPHOS gene expression; [5]): 0.805
Viability (C2C12 myotubes; [5]): 0.404
cyt c (cytochrome c; [5]): 0.050
nucOX (nuOXPHOS transcripts; [5]): 0.883
mitoOX (mtOXPHOS transcripts; [5]): 0.523
ΔΨm [2, 5]: −0.489

cinnarazine
MTT [1]: −1.003
MTT (composite Z-score) [1]: −0.009
GE-HTS (composite Z-score) (OXPHOS gene expression): 0.362
Viability (C2C12 myotubes): 0.752
Viability (composite Z-score) (C2C12 myotubes): −0.692
nucOX (composite Z-score) (nuOXPHOS transcripts): 0.338
mitoOX (composite Z-score) (mtOXPHOS transcripts): 0.349
ΔΨm [2]: 0.544
ΔΨm (composite Z-score) [2]: −0.711
ROS (reactive oxygen species): 0.777
ROS (composite Z-score) (reactive oxygen species): 1.252

Cc1c(O)cc(O)c2c(=O)c(-c3ccc(O)cc3)coc12 [genistein, 8-methyl]
MTT (composite Z-score) [1]: −1.035
GE-HTS (composite Z-score) (OXPHOS gene expression): 0.247
Viability (composite Z-score) (C2C12 myotubes): −0.071
nucOX (composite Z-score) (nuOXPHOS transcripts): 0.353
mitoOX (composite Z-score) (mtOXPHOS transcripts): 0.023
ΔΨm (composite Z-score) [2]: −0.404
ROS (composite Z-score) (reactive oxygen species): 1.016

nonoxynol-9
MTT [1, 6]: −1.228
GE-HTS (OXPHOS gene expression; [6]): −0.872
Viability (C2C12 myotubes; [6]): −0.209
nucOX (nuOXPHOS transcripts; [6]): −1.114
mitoOX (mtOXPHOS transcripts; [6]): −0.138
ΔΨm [2, 6]: −1.484
ROS (reactive oxygen species; [6]): 0.528

NCCCCN [putrescine]
MTT [1]: −0.806
GE-HTS (OXPHOS gene expression): −0.341
Viability (C2C12 myotubes): −0.586
cyt c (cytochrome c): 0.897
nucOX (nuOXPHOS transcripts): −0.160
mitoOX (mtOXPHOS transcripts): −0.684
ROS (reactive oxygen species): 0.279

Cc1cc(C(C)(C)CC(C)(C)C)ccc1OCCOCC[N+](C)(C)Cc1ccccc1 [methylbenzethonium]
MTT [1]: −5.614
GE-HTS (OXPHOS gene expression): −1.868
Viability (C2C12 myotubes): −4.580
nucOX (nuOXPHOS transcripts): −2.103
mitoOX (mtOXPHOS transcripts): −1.043
ΔΨm [2]: −4.202
ROS (reactive oxygen species): −3.108
